Test results as given in ChEMBL document CHEMBL1177794, “Broad spectrum alkynyl inhibitors of T315I Bcr-Abl” (Bioorg Med Chem Lett, 2010).

How the values were obtained:
[1] = molecular target: Tyrosine-protein kinase Mer (Homo sapiens) (UniProt Q12866); test: Inhibition of MERTK at 10 uM; settings: values are per cent of control
[2] = molecular target: Death-associated protein kinase 1 (Homo sapiens) (UniProt P53355); test: Inhibition of DAPK1 at 10 uM; settings: values are per cent of control
[3] = test system: Epidermal growth factor receptor (Homo sapiens), P00533 [UNDEFINED MUTATION]; test: Inhibition of EGFR L747-E749del, A750P mutant at 10 uM; values are per cent of control
[4] = molecular target: TRAF2 and NCK-interacting protein kinase (Homo sapiens) (UniProt Q9UKE5); test: Inhibition of TNIK at 10 uM; settings: values are per cent of control
[5] = molecular target: Tyrosine-protein kinase Lck (Homo sapiens) (UniProt P06239); test: Inhibition of LCK at 10 uM; values are per cent of control
Tyrosine-protein kinase Lck (Homo sapiens), sequence (P06239 2-509 limits assumed): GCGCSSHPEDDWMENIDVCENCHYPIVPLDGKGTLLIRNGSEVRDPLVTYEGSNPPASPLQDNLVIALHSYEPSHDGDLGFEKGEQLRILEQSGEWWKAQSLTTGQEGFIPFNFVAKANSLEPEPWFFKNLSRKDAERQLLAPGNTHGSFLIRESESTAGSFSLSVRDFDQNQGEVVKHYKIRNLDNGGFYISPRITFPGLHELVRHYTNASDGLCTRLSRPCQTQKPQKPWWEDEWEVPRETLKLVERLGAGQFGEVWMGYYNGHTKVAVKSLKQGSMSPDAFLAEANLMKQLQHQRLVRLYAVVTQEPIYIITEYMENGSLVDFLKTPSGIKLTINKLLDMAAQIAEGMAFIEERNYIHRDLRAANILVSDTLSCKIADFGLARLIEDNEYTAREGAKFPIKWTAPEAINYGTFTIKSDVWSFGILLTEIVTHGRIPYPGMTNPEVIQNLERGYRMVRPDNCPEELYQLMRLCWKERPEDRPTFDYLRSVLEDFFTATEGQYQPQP

[6] = test system: Mast/stem cell growth factor receptor Kit (Homo sapiens), P10721 [L576P]; test: Inhibition of KIT L576P mutant at 10 uM; settings: values are per cent of control
Mast/stem cell growth factor receptor Kit (Homo sapiens), P10721 [L576P], sequence (P10721 whole entry L576P): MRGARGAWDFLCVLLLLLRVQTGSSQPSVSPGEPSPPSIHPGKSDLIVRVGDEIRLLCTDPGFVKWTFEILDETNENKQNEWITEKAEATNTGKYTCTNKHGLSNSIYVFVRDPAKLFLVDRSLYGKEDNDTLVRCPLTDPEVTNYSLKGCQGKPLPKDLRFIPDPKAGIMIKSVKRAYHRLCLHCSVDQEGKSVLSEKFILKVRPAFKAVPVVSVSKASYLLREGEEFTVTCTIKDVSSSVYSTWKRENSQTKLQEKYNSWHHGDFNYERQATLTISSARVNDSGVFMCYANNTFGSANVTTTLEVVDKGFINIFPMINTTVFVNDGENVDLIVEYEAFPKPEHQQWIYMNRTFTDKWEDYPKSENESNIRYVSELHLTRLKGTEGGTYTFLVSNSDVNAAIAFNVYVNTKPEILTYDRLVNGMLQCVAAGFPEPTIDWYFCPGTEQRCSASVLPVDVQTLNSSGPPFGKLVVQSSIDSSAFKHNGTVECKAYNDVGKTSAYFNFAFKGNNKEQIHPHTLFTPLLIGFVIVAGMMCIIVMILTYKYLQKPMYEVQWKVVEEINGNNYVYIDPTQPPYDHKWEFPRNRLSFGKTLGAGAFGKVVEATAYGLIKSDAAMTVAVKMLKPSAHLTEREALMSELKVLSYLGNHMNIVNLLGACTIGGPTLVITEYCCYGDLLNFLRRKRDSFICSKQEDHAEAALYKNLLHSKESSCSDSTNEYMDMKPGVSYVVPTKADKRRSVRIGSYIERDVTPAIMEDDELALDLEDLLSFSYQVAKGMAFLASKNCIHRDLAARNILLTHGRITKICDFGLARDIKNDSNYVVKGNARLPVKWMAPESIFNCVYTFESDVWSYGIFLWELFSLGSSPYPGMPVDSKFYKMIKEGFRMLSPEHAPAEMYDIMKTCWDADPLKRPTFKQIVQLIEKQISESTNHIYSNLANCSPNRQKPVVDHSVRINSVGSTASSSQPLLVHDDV

[7] = molecular target: Tyrosine-protein kinase TXK (Homo sapiens) (UniProt P42681); test: Inhibition of TXK at 10 uM; settings: values are per cent of control
[8] = molecular target: Dual specificity protein kinase CLK3 (Homo sapiens) (UniProt P49761); test: Inhibition of CLK3 at 10 uM; settings: values are per cent of control
[9] = molecular target: Cyclin-dependent kinase 7 (Homo sapiens) (UniProt P50613); test: Inhibition of CDK7 at 10 uM; values are per cent of control
[10] = molecular target: Ephrin type-A receptor 2 (Homo sapiens) (UniProt P29317); test: Inhibition of EPHA2 at 10 uM; settings: values are per cent of control
[11] = molecular target: Myotonin-protein kinase (Homo sapiens) (UniProt Q09013); test: Inhibition of DMPK at 10 uM; settings: values are per cent of control
[12] = molecular target: Tyrosine-protein kinase Fes/Fps (Homo sapiens) (UniProt P07332); test: Inhibition of FES at 10 uM; settings: values are per cent of control
[13] = molecular target: Tyrosine-protein kinase receptor Tie-1 (Homo sapiens) (UniProt P35590); test: Inhibition of TIE1 at 10 uM
[14] = molecular target: Casein kinase II subunit alpha (Homo sapiens) (UniProt P68400); test: Inhibition of CSNK2A1 at 10 uM; settings: values are per cent of control
Casein kinase II subunit alpha (Homo sapiens), sequence (P68400 whole entry, looked up): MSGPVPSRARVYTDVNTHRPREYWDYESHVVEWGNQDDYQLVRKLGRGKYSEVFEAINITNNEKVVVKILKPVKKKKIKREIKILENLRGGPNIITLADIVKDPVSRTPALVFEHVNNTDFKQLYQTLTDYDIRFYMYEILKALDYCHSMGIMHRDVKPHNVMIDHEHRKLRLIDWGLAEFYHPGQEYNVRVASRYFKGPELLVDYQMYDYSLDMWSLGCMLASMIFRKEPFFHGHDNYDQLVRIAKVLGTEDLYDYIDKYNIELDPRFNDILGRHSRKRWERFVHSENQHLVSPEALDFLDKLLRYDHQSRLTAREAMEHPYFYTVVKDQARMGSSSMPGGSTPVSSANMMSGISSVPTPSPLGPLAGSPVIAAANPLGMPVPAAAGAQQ

[15] = molecular target: Ephrin type-A receptor 5 (Homo sapiens) (UniProt P54756); test: Inhibition of EPHA5 at 10 uM; values are per cent of control
[16] = molecular target: Serine/threonine-protein kinase 24 (Homo sapiens) (UniProt Q9Y6E0); test: Inhibition of MST3 at 10 uM
[17] = molecular target: Casein kinase I isoform alpha (Homo sapiens) (UniProt P48729); test: Inhibition of CSNK1A1 at 10 uM; values are per cent of control
[18] = molecular target: Serine/threonine-protein kinase RIO1 (Homo sapiens) (UniProt Q9BRS2); test: Inhibition of RIOK1 at 10 uM
Serine/threonine-protein kinase RIO1 (Homo sapiens), sequence (Q9BRS2 whole entry): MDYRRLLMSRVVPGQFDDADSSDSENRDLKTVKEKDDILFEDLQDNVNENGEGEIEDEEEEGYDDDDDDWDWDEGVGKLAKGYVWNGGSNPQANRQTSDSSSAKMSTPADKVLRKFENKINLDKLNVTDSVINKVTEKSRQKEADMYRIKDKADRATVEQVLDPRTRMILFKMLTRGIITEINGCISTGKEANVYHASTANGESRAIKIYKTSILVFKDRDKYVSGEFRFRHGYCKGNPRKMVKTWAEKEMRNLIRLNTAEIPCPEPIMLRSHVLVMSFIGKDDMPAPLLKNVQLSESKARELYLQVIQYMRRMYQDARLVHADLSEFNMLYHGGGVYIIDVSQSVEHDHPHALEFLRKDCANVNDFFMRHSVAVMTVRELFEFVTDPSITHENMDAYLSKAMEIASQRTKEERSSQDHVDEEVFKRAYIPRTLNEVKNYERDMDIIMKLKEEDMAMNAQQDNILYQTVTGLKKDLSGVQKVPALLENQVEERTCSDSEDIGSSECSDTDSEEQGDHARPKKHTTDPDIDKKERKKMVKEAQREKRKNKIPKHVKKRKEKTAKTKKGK

[19] = molecular target: Inhibitor of nuclear factor kappa-B kinase subunit beta (Homo sapiens) (UniProt O14920); test: Inhibition of IKK-beta at 10 uM; settings: values are per cent of control
Inhibitor of nuclear factor kappa-B kinase subunit beta (Homo sapiens), sequence (O14920 whole entry): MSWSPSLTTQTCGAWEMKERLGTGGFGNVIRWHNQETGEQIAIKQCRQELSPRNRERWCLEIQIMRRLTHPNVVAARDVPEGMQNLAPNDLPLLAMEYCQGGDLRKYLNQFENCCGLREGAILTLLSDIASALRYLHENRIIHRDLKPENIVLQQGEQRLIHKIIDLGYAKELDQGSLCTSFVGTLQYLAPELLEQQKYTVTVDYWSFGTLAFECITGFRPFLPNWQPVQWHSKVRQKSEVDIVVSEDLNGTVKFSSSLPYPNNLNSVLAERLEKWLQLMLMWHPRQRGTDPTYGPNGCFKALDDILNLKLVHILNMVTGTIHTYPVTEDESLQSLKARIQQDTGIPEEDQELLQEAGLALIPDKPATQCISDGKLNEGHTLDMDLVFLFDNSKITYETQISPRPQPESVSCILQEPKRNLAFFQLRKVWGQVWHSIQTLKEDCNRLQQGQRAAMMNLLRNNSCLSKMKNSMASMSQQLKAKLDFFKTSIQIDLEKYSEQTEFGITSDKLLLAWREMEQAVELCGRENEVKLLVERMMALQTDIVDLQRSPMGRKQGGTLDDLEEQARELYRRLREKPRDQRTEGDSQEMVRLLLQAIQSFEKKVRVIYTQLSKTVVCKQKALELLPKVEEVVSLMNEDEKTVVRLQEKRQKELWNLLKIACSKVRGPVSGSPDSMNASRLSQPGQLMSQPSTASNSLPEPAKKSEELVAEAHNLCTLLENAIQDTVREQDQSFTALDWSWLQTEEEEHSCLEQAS

[20] = test system: Epidermal growth factor receptor (Homo sapiens), P00533 [G719C]; test: Inhibition of EGFR G719C mutant at 10 uM; values are per cent of control
[21] = molecular target: Dual specificity mitogen-activated protein kinase kinase 6 (Homo sapiens) (UniProt P52564); test: Inhibition of MEK6 at 10 uM; settings: values are per cent of control
[22] = molecular target: STE20-like serine/threonine-protein kinase (Homo sapiens) (UniProt Q9H2G2); test: Inhibition of SLK at 10 uM
[23] = molecular target: Inhibitor of nuclear factor kappa-B kinase subunit epsilon (Homo sapiens) (UniProt Q14164); test: Inhibition of IKK-epsilon at 10 uM; settings: values are per cent of control
Inhibitor of nuclear factor kappa-B kinase subunit epsilon (Homo sapiens), sequence (Q14164 whole entry): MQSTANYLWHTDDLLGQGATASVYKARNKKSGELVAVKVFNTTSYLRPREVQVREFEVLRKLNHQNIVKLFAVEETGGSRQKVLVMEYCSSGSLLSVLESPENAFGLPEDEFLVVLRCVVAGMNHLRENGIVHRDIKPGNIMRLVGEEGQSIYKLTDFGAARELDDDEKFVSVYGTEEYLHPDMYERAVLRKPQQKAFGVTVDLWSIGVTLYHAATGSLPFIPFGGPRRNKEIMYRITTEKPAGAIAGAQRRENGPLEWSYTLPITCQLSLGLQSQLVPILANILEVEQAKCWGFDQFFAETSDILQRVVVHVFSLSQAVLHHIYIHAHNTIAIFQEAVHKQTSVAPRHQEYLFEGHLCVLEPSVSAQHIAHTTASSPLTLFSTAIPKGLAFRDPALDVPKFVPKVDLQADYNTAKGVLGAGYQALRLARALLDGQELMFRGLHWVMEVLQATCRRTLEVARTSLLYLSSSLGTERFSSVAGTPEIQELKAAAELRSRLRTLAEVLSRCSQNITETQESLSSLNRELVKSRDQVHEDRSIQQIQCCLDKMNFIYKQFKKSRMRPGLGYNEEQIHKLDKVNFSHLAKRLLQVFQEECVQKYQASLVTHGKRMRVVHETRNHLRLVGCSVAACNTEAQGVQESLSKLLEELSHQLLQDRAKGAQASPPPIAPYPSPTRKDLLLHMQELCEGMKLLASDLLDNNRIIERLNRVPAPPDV

[24] = molecular target: STE20/SPS1-related proline-alanine-rich protein kinase (Homo sapiens) (UniProt Q9UEW8); test: Inhibition of STK39 at 10 uM
[25] = molecular target: cAMP-dependent protein kinase catalytic subunit beta (Homo sapiens) (UniProt P22694); test: Inhibition of PKAC-beta at 10 uM; settings: values are per cent of control
[26] = molecular target: Glycogen synthase kinase-3 alpha (Homo sapiens) (UniProt P49840); test: Inhibition of GSK3A at 10 uM; settings: values are per cent of control
[27] = molecular target: Focal adhesion kinase 1 (Homo sapiens) (UniProt Q05397); test: Inhibition of FAK at 10 uM; settings: values are per cent of control
[28] = molecular target: Myosin light chain kinase 2, skeletal/cardiac muscle (Homo sapiens) (UniProt Q9H1R3); test: Inhibition of MYLK2 at 10 uM
Myosin light chain kinase 2, skeletal/cardiac muscle (Homo sapiens), sequence (Q9H1R3 whole entry): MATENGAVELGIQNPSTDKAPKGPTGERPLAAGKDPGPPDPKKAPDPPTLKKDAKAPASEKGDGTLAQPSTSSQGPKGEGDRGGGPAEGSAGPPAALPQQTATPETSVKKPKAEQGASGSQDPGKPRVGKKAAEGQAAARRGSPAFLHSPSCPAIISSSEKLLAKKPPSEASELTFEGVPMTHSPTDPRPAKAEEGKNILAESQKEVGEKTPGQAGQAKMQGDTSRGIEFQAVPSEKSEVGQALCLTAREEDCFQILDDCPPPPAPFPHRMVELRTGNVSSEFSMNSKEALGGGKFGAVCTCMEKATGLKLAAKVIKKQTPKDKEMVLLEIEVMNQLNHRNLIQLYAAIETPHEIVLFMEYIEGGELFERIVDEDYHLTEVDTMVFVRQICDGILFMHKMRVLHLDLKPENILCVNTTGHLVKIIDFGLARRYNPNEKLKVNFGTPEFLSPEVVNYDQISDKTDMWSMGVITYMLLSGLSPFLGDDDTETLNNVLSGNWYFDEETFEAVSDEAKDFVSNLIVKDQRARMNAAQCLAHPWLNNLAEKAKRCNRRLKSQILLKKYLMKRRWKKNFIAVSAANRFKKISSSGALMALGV

[29] = molecular target: Cyclin-dependent kinase 2 (Homo sapiens) (UniProt P24941); test: Inhibition of CDK2 at 10 uM; values are per cent of control
[30] = molecular target: Serine/threonine-protein kinase Nek4 (Homo sapiens) (UniProt P51957); test: Inhibition of NEK4 at 10 uM
[31] = test system: BaF3; test: Antiproliferative activity against mouse BAF3 cells expressing Bcr-Abl T315I mutant; assay type: functional, cell-based
[32] = molecular target: Proto-oncogene tyrosine-protein kinase receptor Ret (Homo sapiens) (UniProt P07949); test: Inhibition of RET at 10 uM; values are per cent of control
[33] = molecular target: Citron Rho-interacting kinase (Homo sapiens) (UniProt O14578); test: Inhibition of CIT at 10 uM; values are per cent of control
[34] = molecular target: Ribosomal protein S6 kinase alpha-5 (Homo sapiens) (UniProt O75582); test: Inhibition of RPS6KA5 C-terminal domain2 at 10 uM
[35] = molecular target: Serine/threonine-protein kinase tousled-like 1 (Homo sapiens) (UniProt Q9UKI8); test: Inhibition of TLK1 at 10 uM
[36] = molecular target: Epidermal growth factor receptor (Homo sapiens) (UniProt P04626+P00533+Q15303+P21860); test: Inhibition of EGFR L747-T751del, Sins mutant at 10 uM; values are per cent of control
[37] = molecular target: Mitogen-activated protein kinase 12 (Homo sapiens) (UniProt P53778); test: Inhibition of p38-gamma at 10 uM; values are per cent of control
[38] = molecular target: Interleukin-1 receptor-associated kinase 4 (Homo sapiens) (UniProt Q9NWZ3); test: Inhibition of IRAK4 at 10 uM; values are per cent of control
Interleukin-1 receptor-associated kinase 4 (Homo sapiens), sequence (Q9NWZ3 whole entry): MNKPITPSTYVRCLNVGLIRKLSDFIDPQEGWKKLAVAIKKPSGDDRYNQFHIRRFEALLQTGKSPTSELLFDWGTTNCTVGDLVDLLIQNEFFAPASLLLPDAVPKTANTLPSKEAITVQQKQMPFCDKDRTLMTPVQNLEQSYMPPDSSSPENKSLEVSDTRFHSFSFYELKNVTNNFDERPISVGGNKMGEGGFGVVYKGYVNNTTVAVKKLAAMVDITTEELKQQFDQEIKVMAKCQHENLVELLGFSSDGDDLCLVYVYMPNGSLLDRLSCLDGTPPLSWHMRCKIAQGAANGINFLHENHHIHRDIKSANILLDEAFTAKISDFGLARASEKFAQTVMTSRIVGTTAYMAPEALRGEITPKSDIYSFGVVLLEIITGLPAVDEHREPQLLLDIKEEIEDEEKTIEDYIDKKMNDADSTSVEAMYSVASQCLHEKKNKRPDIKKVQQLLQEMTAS

[39] = molecular target: NT-3 growth factor receptor (Homo sapiens) (UniProt Q16288); test: Inhibition of TRKC at 10 uM; settings: values are per cent of control
[40] = molecular target: Mitogen-activated protein kinase 7 (Homo sapiens) (UniProt Q13164); test: Inhibition of ERK5 at 10 uM; values are per cent of control
[41] = molecular target: Protein-tyrosine kinase 2-beta (Homo sapiens) (UniProt Q14289); test: Inhibition of PYK2 at 10 uM; settings: values are per cent of control

CCN1CCN(Cc2ccc(NC(=O)c3ccc(C)c(C#Cc4cccnc4)c3)cc2C(F)(F)F)CC1
residual binding, % of control [1]: 5.2%
residual binding, % of control [2]: 100%
level, % of control [3]: 1.2%
residual binding, % of control [4]: 1.8%
level, % of control [5]: 0.05%
residual binding, % of control [6]: 0%
residual binding, % of control [7]: 0.3%
residual binding, % of control [8]: 70%
level, % of control [9]: 1.6%
residual binding, % of control [10]: 0.4%
residual binding, % of control [11]: 100%
residual binding, % of control [12]: 0.75%
inhibition [13]: 1.6%
residual binding, % of control [14]: 100%
level, % of control [15]: 1.2%
inhibition [16]: 2.8%
level, % of control [17]: 75%
inhibition [18]: 90%
residual binding, % of control [19]: 0%
level, % of control [20]: 0.75%
residual binding, % of control [21]: 100%
inhibition [22]: 0.1%
residual binding, % of control [23]: 100%
inhibition [24]: 89%
residual binding, % of control [25]: 4.1%
residual binding, % of control [26]: 100%
residual binding, % of control [27]: 75%
inhibition [28]: 3.4%
level, % of control [29]: 10%
inhibition [30]: 6.4%
EC50 [31]: 92 nM
level, % of control [32]: 0%
level, % of control [33]: 0%
inhibition [34]: 100%
inhibition [35]: 93%
level, % of control [36]: 0.45%
% of control [37]: 2.7%
level, % of control [38]: 72%
residual binding, % of control [39]: 0.35%
level, % of control [40]: 71%
residual binding, % of control [41]: 0.4%

CCN1CCN(Cc2ccc(NC(=O)c3ccc(C)c(C#Cc4cnc5[nH]ccc5c4)c3)cc2C(F)(F)F)CC1
residual binding, % of control [1]: 0.5%
residual binding, % of control [2]: 94%
level, % of control [3]: 0.25%
residual binding, % of control [4]: 1.6%
level, % of control [5]: 0.1%
residual binding, % of control [6]: 0%
residual binding, % of control [7]: 0.25%
residual binding, % of control [8]: 94%
level, % of control [9]: 4%
residual binding, % of control [10]: 0.35%
residual binding, % of control [11]: 27%
residual binding, % of control [12]: 0.1%
inhibition [13]: 1.1%
residual binding, % of control [14]: 100%
level, % of control [15]: 0.85%
inhibition [16]: 3.6%
level, % of control [17]: 89%
inhibition [18]: 53%
residual binding, % of control [19]: 0.1%
level, % of control [20]: 0%
residual binding, % of control [21]: 88%
inhibition [22]: 0.3%
residual binding, % of control [23]: 92%
inhibition [24]: 100%
residual binding, % of control [25]: 11%
residual binding, % of control [26]: 100%
residual binding, % of control [27]: 59%
inhibition [28]: 0.15%
level, % of control [29]: 13%
inhibition [30]: 14%
EC50 [31]: 80 nM
level, % of control [32]: 0%
level, % of control [33]: 0%
inhibition [34]: 97%
inhibition [35]: 93%
level, % of control [36]: 0.4%
% of control [37]: 5.7%
level, % of control [38]: 64%
residual binding, % of control [39]: 0.35%
level, % of control [40]: 36%
residual binding, % of control [41]: 0.15%
